Experimental data taken from patent US9415027B2, “Therapeutic agents” (Allergan, Inc., priority 2013, dated 2016).

What was measured:
[1] = biological target: T1, EP2 (Homo sapiens, UniProt P43116); experiment: EP2 binding study; details: read-out: EP2 Data (EC50 in nM) Ki
Protocol: (§1) Data from running binding and activity studies on the compounds of the invention were carried out as described in U.S. Pat. No. 7,427,685, the contents of which are incorporated herein by reference.

[2] = biological target: T2, EP4 (Homo sapiens, UniProt P35408); experiment: EP4 cAMP activity study; format: cell-based
T2 sequence (P35408 whole entry): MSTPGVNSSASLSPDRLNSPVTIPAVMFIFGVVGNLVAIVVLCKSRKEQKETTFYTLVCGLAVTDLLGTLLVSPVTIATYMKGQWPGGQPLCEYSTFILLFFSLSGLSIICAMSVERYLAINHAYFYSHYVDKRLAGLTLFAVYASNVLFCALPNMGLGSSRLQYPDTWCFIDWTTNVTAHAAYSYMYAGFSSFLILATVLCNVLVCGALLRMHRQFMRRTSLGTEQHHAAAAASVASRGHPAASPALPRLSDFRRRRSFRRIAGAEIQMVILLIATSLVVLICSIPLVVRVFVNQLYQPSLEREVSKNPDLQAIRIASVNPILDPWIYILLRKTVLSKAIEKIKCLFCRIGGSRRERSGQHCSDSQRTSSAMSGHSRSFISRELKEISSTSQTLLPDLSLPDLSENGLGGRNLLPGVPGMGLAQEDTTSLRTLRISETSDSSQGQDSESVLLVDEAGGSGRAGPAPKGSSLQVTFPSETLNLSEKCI
Protocol: as §1

[3] = biological target: T2, EP4; experiment: EP4 binding study; details: read-out: EP4 data (EC50 in nM) KI
Protocol: as §1

[4] = biological target: T1, EP2; experiment: EP2 cAMP activity study; format: cell-based
Protocol: as §1

[5] = biological target: T3, hEP3A (Homo sapiens, UniProt P43115); experiment: Other receptors activity, hEP3A; format: cell-based
T3 sequence (P43115 1-390): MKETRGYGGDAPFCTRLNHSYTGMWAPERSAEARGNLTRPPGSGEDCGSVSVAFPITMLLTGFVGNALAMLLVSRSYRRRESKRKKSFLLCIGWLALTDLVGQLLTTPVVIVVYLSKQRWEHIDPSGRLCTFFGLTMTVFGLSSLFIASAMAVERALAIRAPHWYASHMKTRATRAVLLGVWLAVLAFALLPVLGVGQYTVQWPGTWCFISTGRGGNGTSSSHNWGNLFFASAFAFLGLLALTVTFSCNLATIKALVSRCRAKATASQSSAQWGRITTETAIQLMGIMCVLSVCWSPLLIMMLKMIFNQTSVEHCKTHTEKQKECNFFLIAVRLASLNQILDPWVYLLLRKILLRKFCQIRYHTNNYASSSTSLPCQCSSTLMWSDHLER
Protocol: as §1

T1 sequence (P43116 whole entry): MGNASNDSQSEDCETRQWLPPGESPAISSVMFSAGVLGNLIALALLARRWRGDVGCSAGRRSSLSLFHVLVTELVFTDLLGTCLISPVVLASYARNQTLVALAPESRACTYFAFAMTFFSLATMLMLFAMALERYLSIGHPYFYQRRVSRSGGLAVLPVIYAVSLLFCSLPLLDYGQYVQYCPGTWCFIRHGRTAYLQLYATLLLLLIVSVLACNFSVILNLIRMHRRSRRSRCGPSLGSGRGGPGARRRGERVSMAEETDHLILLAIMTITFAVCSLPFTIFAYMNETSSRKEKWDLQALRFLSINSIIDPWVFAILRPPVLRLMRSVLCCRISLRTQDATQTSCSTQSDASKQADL

| SMILES | Ki [1] | EC50 [2] | Ki [3] | EC50 [4] | EC50 [5] |
| --- | --- | --- | --- | --- | --- |
| O=C(O)c1ccc(CC2Cc3c(cccc3-c3ccc(Cl)c(C(F)(F)F)c3)C2=O)cc1 (stereo not drawn) [Example 10, 4-((4-(4-Chloro-3-(trifluoromethyl)phenyl)-1-oxo-2,3-dihydro-1H-inden-2-yl)methyl)benzoic acid] | 3 nM | 1090 nM | 1350 nM | 1 nM | – |
| O=C(O)c1cccc(CC2Cc3c(cccc3-c3cccc(C(F)(F)F)c3)C2=O)c1 (stereo not drawn) [Example 19, 3-((1-Oxo-4-(3-(trifluoromethyl)phenyl)-2,3-dihydro-1H-inden-2-yl)methyl)benzoic acid] | 6760 nM | 1470 nM | 2740 nM | – | – |
| COc1cccc(-c2cccc3c2CC(Cc2ccc(C(=O)O)cc2)C3=O)c1 (stereo not drawn) [Example 11, 4-((4-(3-Methoxyphenyl)-1-oxo-2,3-dihydro-1H-inden-2-yl)methyl)benzoic acid] | 333 nM | 186 nM | 525 nM | – | – |
| O=C(O)c1ccc(CC2Cc3c(cccc3-c3cccc(C(F)(F)F)c3)C2=O)cc1 (stereo not drawn) [Example 2, 4-((1-Oxo-4-(3-(trifluoromethyl)phenyl)-2,3-dihydro-1H-inden-2-yl)methyl)benzoic acid] | 56 nM | 108 nM | 18 nM | 1 nM | – |
| O=C(O)c1ccc(CC2Cc3c(cccc3-c3ccccc3C(F)(F)F)C2=O)cc1 (stereo not drawn) [Example 7, 4-((1-Oxo-4-(2-(trifluoromethyl)phenyl)-2,3-dihydro-1H-inden-2-yl)methyl)benzoic acid] | > 10000 nM | > 10000 nM | 7090 nM | – | – |
| O=C(O)c1ccc(CC2Cc3c(cccc3-c3cc(C(F)(F)F)cc(C(F)(F)F)c3)C2=O)cc1 (stereo not drawn) [Example 9, 4-((4-(3,5-Bis(trifluoromethyl)phenyl)-1-oxo-2,3-dihydro-1H-inden-2-yl)methyl)benzoic acid] | 9 nM | 1630 nM | 1780 nM | 5 nM | – |
| O=C(O)c1ccc(CC2Cc3c(cccc3-c3ccc4ccccc4c3)C2=O)cc1 (stereo not drawn) [Example 5, 4-((4-(Naphthalen-2-yl)-1-oxo-2,3-dihydro-1H-inden-2-yl)methyl)benzoic acid] | 61 nM | > 10000 nM | 1190 nM | 40 nM | – |
| COc1cc(-c2cccc3c2CC(Cc2ccc(C(=O)O)cc2)C3=O)cc(C(F)(F)F)c1 (stereo not drawn) [Example 8, 4-((4-(3-Methoxy-5-(trifluoromethyl)phenyl)-1-oxo-2,3-dihydro-1H-inden-2-yl)methyl)benzoic acid] | 21 nM | 1050 nM | 889 nM | 11 nM | – |
| O=C(O)c1cc(CC2Cc3c(cccc3-c3cccc(C(F)(F)F)c3)C2=O)cs1 (stereo not drawn) [Example 17, 4-((1-Oxo-4-(3-(trifluoromethyl)phenyl)-2,3-dihydro-1H-inden-2-yl)methyl)thiophene-2-carboxylic acid] | 674 nM | > 10000 nM | 7 nM | 695 nM | – |

Continued, values first:

| Ki [1] | EC50 [2] | Ki [3] | EC50 [4] | EC50 [5] | SMILES |
| --- | --- | --- | --- | --- | --- |
| 338 nM | > 10000 nM | 4450 nM | – | – | O=C(O)c1ccc(CC2Cc3c(cccc3-c3ccc(C(F)(F)F)cc3)C2=O)cc1 (stereo not drawn) [Example 6, 4-((1-Oxo-4-(4-(trifluoromethyl)phenyl)-2,3-dihydro-1H-inden-2-yl)methyl)benzoic acid] |
| 2080 nM | 1240 nM | 1280 nM | – | – | O=C(O)c1ccc(CC2Cc3c(cccc3-c3cccc4ccccc34)C2=O)cc1 (stereo not drawn) [Example 4, 4-((4-(Naphthalen-1-yl)-1-oxo-2,3-dihydro-1H-inden-2-yl)methyl)benzoic acid] |
| 1390 nM | 341 nM | 1070 nM | 79 nM | – | O=C(O)c1ccc(CC2CCc3c(cccc3-c3cccc(C(F)(F)F)c3)C2=O)s1 (stereo not drawn) [Example 14, 5-((1-Oxo-5-(3-(trifluoromethyl)phenyl)-1,2,3,4-tetrahydronaphthalen-2-yl)methyl)thiophene-2-carboxylic acid] |
| 1140 nM | 2440 nM | 1010 nM | – | – | O=C(O)c1ccc(CC2Cc3c(cccc3-c3ccccc3)C2=O)cc1 (stereo not drawn) [Example 13, 4-((1-Oxo-4-phenyl-2,3-dihydro-1H-inden-2-yl)methyl)benzoic acid] |
| 70 nM | 196 nM | 149 nM | 6 nM | – | O=C(O)c1ccc(CC2CCc3c(cccc3-c3cccc(C(F)(F)F)c3)C2=O)cc1 (stereo not drawn) [Example 1, 4-((1-Oxo-5-(3-(trifluoromethyl)phenyl)-1,2,3,4-tetrahydronaphthalen-2-yl)methyl)benzoic acid] |
| 96 nM | 4970 nM | 5 nM | 179 nM | – | O=C(O)c1csc(CC2Cc3c(cccc3-c3cccc(C(F)(F)F)c3)C2=O)c1 (stereo not drawn) [Example 18, 5-((1-Oxo-4-(3-(trifluoromethyl)phenyl)-2,3-dihydro-1H-inden-2-yl)methyl)thiophene-3-carboxylic acid] |
| 191 nM | 1170 nM | 610 nM | 217 nM | – | Cc1cccc(-c2cccc3c2CC(Cc2ccc(C(=O)O)cc2)C3=O)c1 (stereo not drawn) [Example 12, 4-((1-Oxo-4-(m-tolyl)-2,3-dihydro-1H-inden-2-yl)methyl)benzoic acid] |
| 130 nM | 1070 nM | 954 nM | 26 nM | – | O=C(O)c1ccc(CC2Cc3c(cccc3-c3cccc(Cl)c3)C2=O)cc1 (stereo not drawn) [Example 3, 4-((4-(3-Chlorophenyl)-1-oxo-2,3-dihydro-1H-inden-2-yl)methyl)benzoic acid] |
| 241 nM | 874 nM | 486 nM | 79 nM | – | COc1cc(OC)cc(-c2cccc3c2CC(Cc2ccc(C(=O)O)cc2)C3=O)c1 (stereo not drawn) [Example 21] |
| 7360 nM | > 10000 nM | 954 nM | – | – | COc1ccc(-c2cccc(C(F)(F)F)c2)c2c1C(=O)C(Cc1ccc(C(=O)O)cc1)C2 (stereo not drawn) [Example 20, 4-((7-Methoxy-1-oxo-4-(3-(trifluoromethyl)phenyl)-2,3-dihydro-1H-inden-2-yl)methyl)benzoic acid] |
| 199 nM | 300 nM | 505 nM | 62 nM | – | O=C(O)c1ccc(CC2Cc3c(cccc3-c3cccc(Cl)c3)C2=O)s1 (stereo not drawn) [Example 16, 5-((4-(3-Chlorophenyl)-1-oxo-2,3-dihydro-1H-inden-2-yl)methyl)thiophene-2-carboxylic acid] |
| 131 nM | 54 nM | 137 nM | 11 nM | > 10000 nM | O=C(O)c1ccc(CC2Cc3c(cccc3-c3cccc(C(F)(F)F)c3)C2=O)s1 (stereo not drawn) [Example 15, 5-((1-Oxo-4-(3-(trifluoromethyl)phenyl)-2,3-dihydro-1H-inden-2-yl)methyl)thiophene-2-carboxylic acid] |
